≈ marks a conversion by molar mass, not a printed value.
Key:
[1] = test system: K. pneumoniae H151440671 (KP10); assay: MIC broth microdilution; type: cell-based, Klebsiella pneumoniae; details: Klebsiella pneumoniae
How it was run: (§1)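 Growth inhibition read after 20-24 hour incubation at 37° C in ambient atmosphere; MIC is the lowest compound concentration with no growth. Planktonic bacteria in cation-adjusted Müller-Hinton broth were exposed to two-fold dilutions (0.39-200 μM final; ≤2% DMSO final) per CLSI guidelines.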

[2] = test system: K. pneumoniae NCTC 13438 (KP1); assay: MIC broth microdilution; type: cell-based, Klebsiella pneumoniae; details: Klebsiella pneumoniae, NCTC13438
How it was run: as §1

[3] = test system: K. pneumoniae H154020667 (KP6); assay: MIC broth microdilution; type: cell-based, Klebsiella pneumoniae; details: Klebsiella pneumoniae
How it was run: as §1

[4] = test system: K. pneumoniae H154680676 (KP5); assay: MIC broth microdilution; type: cell-based, Klebsiella pneumoniae; details: Klebsiella pneumoniae
How it was run: as §1

[5] = test system: K. pneumoniae ATCC 700603 (KP3); assay: MIC broth microdilution; type: cell-based, Klebsiella pneumoniae; details: Klebsiella pneumoniae, ATCC700603
How it was run: as §1

[6] = test system: K. pneumoniae H154600588 (KP8); assay: MIC broth microdilution; type: cell-based, Klebsiella pneumoniae; details: Klebsiella pneumoniae
How it was run: as §1

[7] = test system: K. pneumoniae H154640784 (KP7); assay: MIC broth microdilution; type: cell-based, Klebsiella pneumoniae; details: Klebsiella pneumoniae
How it was run: as §1

[8] = test system: K. pneumoniae H154300688 (KP9); assay: MIC broth microdilution; type: cell-based, Klebsiella pneumoniae; details: Klebsiella pneumoniae
How it was run: as §1

[9] = test system: human hepatocarcinoma cell line ATCC HB-8065 (HepG2); assay: Human cell viability (CellTiter-Glo); type: cell-based; details: Homo sapiens; HepG2 cells, 24 h incubation, CellTiter-Glo luminescence, 0.2-100 μM; read-out: IC50 values against the HepG2 cell line
How it was run: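 HepG2 cells were seeded at 20,000 cells/well in MEM with 10% FBS and, after 24 h, exposed for 24 h at 37° C. to two-fold dilutions (final 0.2-100 μM) in MEM with 1% FBS and 1% DMSO. Viability was read by CellTiter-Glo luminescence, with IC50 from a 4-parameter logistic fit.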

[10] = test system: Serratia marcescens SL1344 (Sm); assay: MIC broth microdilution; type: cell-based
How it was run: (§2)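 Read-out is visible growth: the MIC is the lowest compound concentration that prevents it after incubating 20-24 hours at 37° C in air. Compounds span 0.39-200 μM final (two-fold steps, up to 2% DMSO) in cation-adjusted Müller-Hinton broth, following CLSI guidelines for planktonic bacteria.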

[11] = test system: Salmonella typhimurium XNAA5 (St); assay: MIC broth microdilution; type: cell-based; details: Salmonella enterica
How it was run: as §2

[12] = test system: Acinetobacter baumannii ATCC 17978 (AB); assay: MIC broth microdilution; type: cell-based; details: ATCC17978
How it was run: as §2

[13] = test system: Escherichia coli K12 (EC); assay: MIC broth microdilution; type: cell-based
How it was run: as §2

[14] = test system: Klebsiella pneumoniae ATCC 10031 (KP2); assay: MIC broth microdilution; type: cell-based; details: ATCC10031
How it was run: as §1

[15] = test system: Staphylococcus aureus ATCC 35556 (SA); assay: MIC broth microdilution; type: cell-based; details: ATCC35556
How it was run: as §2

[16] = test system: Pseudomonas aeruginosa ATCC 33359 (PA); assay: MIC broth microdilution; type: cell-based; details: ATCC33359
How it was run: as §2

[17] = test system: Enterobacter cloacae DSM 30054 (Ed); assay: MIC broth microdilution; type: cell-based; details: DSM30054
How it was run: as §1

[18] = test system: E. coli NCTC 13441 (UPEC); assay: MIC broth microdilution; type: cell-based, Escherichia coli; details: Escherichia coli, NCTC13441
How it was run: as §2

CNc1cc(-c2[nH]c(N)nc2-c2ccc3c(c2)CCO3)ccn1 [Example 9, 4-(2-Amino-4-(2,3-dihydrobenzofuran-5-yl)-1H-imidazol-5-yl)-N-methylpyridin-2-amine]
MIC [1]: ≤ 1 µM | MIC [2]: 1 to 10 µM (≈ 0.307 to 3.07 µg/mL) | MIC [3]: ≤ 1 µM | MIC [4]: 1 to 10 µM (≈ 0.307 to 3.07 µg/mL) | MIC [5]: 1 to 10 µM (≈ 0.307 to 3.07 µg/mL) | MIC [6]: 1 to 10 µM (≈ 0.307 to 3.07 µg/mL) | MIC [7]: 1 to 10 µM (≈ 0.307 to 3.07 µg/mL) | MIC [8]: 1 to 10 µM (≈ 0.307 to 3.07 µg/mL) | IC50 [9]: > 100 µM | MIC [10]: 10 to 100 µM (≈ 3.07 to 30.7 µg/mL) | MIC [11]: ≤ 1 µM | MIC [12]: > 100 µM | MIC [13]: ≤ 1 µM | MIC [14]: ≤ 1 µM | MIC [15]: > 100 µM | MIC [16]: > 100 µM | MIC [17]: ≤ 1 µM | MIC [18]: ≤ 1 µM

Cc1cc(-c2[nH]c(N)nc2-c2ccc3c(c2)NCCO3)ccn1 [Example 27, 4-(3,4-Dihydro-2H-benzo[b][1,4]oxazin-6-yl)-5-(2-methylpyridin-4-yl)-1H-imidazol-2-amine]
MIC [1]: ≤ 1 µM | MIC [2]: 1 to 10 µM (≈ 0.307 to 3.07 µg/mL) | MIC [3]: ≤ 1 µM | MIC [4]: ≤ 1 µM | MIC [5]: 1 to 10 µM (≈ 0.307 to 3.07 µg/mL) | MIC [6]: 1 to 10 µM (≈ 0.307 to 3.07 µg/mL) | MIC [7]: 1 to 10 µM (≈ 0.307 to 3.07 µg/mL) | MIC [8]: 1 to 10 µM (≈ 0.307 to 3.07 µg/mL) | IC50 [9]: > 100 µM | MIC [10]: 1 to 10 µM (≈ 0.307 to 3.07 µg/mL) | MIC [11]: ≤ 1 µM | MIC [12]: > 100 µM | MIC [13]: ≤ 1 µM | MIC [14]: ≤ 1 µM | MIC [15]: > 100 µM | MIC [16]: > 100 µM | MIC [17]: ≤ 1 µM | MIC [18]: ≤ 1 µM

Cc1cc(-c2[nH]c(N)nc2-c2ccc3c(c2)CCO3)ccn1 [Example 3, 4-(2,3-Dihydrobenzofuran-5-yl)-5-(2-methylpyridin-4-yl)-1H-imidazol-2-amine]
MIC [1]: 1 to 10 µM (≈ 0.292 to 2.92 µg/mL) | MIC [2]: 1 to 10 µM (≈ 0.292 to 2.92 µg/mL) | MIC [3]: 1 to 10 µM (≈ 0.292 to 2.92 µg/mL) | MIC [4]: 1 to 10 µM (≈ 0.292 to 2.92 µg/mL) | MIC [5]: 1 to 10 µM (≈ 0.292 to 2.92 µg/mL) | MIC [6]: 1 to 10 µM (≈ 0.292 to 2.92 µg/mL) | MIC [7]: 1 to 10 µM (≈ 0.292 to 2.92 µg/mL) | MIC [8]: 1 to 10 µM (≈ 0.292 to 2.92 µg/mL) | IC50 [9]: > 100 µM | MIC [10]: 1 to 10 µM (≈ 0.292 to 2.92 µg/mL) | MIC [11]: ≤ 1 µM | MIC [12]: > 100 µM | MIC [13]: ≤ 1 µM | MIC [14]: ≤ 1 µM | MIC [15]: > 100 µM | MIC [16]: > 100 µM | MIC [17]: ≤ 1 µM | MIC [18]: ≤ 1 µM

Cc1cc(-c2[nH]c(N)nc2-c2ccc(OCc3ccc(F)cc3)cc2)ccn1 [Example 19, 4-(4-((4-Fluorobenzyl)oxy)phenyl)-5-(2-methylpyridin-4-yl)-1H-imidazol-2-amine]
MIC [1]: ≤ 1 µM | MIC [2]: ≤ 1 µM | MIC [3]: ≤ 1 µM | MIC [4]: ≤ 1 µM | MIC [5]: ≤ 1 µM | MIC [6]: 1 to 10 µM (≈ 0.374 to 3.74 µg/mL) | MIC [7]: 1 to 10 µM (≈ 0.374 to 3.74 µg/mL) | MIC [8]: ≤ 1 µM | IC50 [9]: 25 to 100 µM | MIC [10]: ≤ 1 µM | MIC [11]: ≤ 1 µM | MIC [12]: 10 to 100 µM (≈ 3.74 to 37.4 µg/mL) | MIC [13]: ≤ 1 µM | MIC [14]: ≤ 1 µM | MIC [15]: 10 to 100 µM (≈ 3.74 to 37.4 µg/mL) | MIC [16]: > 100 µM | MIC [17]: ≤ 1 µM | MIC [18]: ≤ 1 µM

Cc1cc(-c2[nH]c(N)nc2-c2ccc(OCc3ccc(F)cc3)nc2)ccn1 [Example 28, 4-(6-((4-Fluorobenzyl)oxy)pyridin-3-yl)-5-(2-methylpyridin-4-yl)-1H-imidazol-2-amine]
MIC [1]: ≤ 1 µM | MIC [2]: 1 to 10 µM (≈ 0.375 to 3.75 µg/mL) | MIC [3]: ≤ 1 µM | MIC [4]: ≤ 1 µM | MIC [5]: 1 to 10 µM (≈ 0.375 to 3.75 µg/mL) | MIC [6]: 1 to 10 µM (≈ 0.375 to 3.75 µg/mL) | MIC [7]: 1 to 10 µM (≈ 0.375 to 3.75 µg/mL) | MIC [8]: ≤ 1 µM | IC50 [9]: 25 to 100 µM | MIC [10]: ≤ 1 µM | MIC [11]: ≤ 1 µM | MIC [12]: > 100 µM | MIC [13]: ≤ 1 µM | MIC [14]: ≤ 1 µM | MIC [15]: > 100 µM | MIC [16]: > 100 µM | MIC [17]: ≤ 1 µM | MIC [18]: ≤ 1 µM

Reference: US11345694B2, “Antibacterial compounds” (DISCUVA LTD., priority 2017, dated 2022)
